Laboratory results as given in PubChem BioAssay AID248 (DTP/NCI, 2004).
“And” between values parts separate entries of the source, which are not always exact repeats. Equal entries are not always repeated. Toxic doses and inconclusive results are not listed. Cut-off read from the data, not from the text of the source: active = T/C of 150% or more; inactive = T/C below 125%.

Tested on: L1210 leukemia ip in BDF1 mice, survival T/C
Experiment: NCI In Vivo Anticancer Drug Screen. Data for tumor model L1210 Leukemia (intraperitoneal) in B6D2F1 (BDF1) mice
Conditions: endpoint: mean survival time, higher = longer survival
Procedure, shortened: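 Each compound was tested against a transplantable tumor grown in mice. The endpoint was survival, with treated animals benchmarked against vehicle controls as a simple ratio.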

[1] = dose: 100.0 mg/kg/injection, schedule: Q04DX003 (ip), vehicle: Klucel (hydroxypropylcellulose) (HPC)
[2] = dose: 200.0 mg/kg/injection, schedule: Q04DX003 (ip), vehicle: Klucel (hydroxypropylcellulose) (HPC)
[3] = dose: 400.0 mg/kg/injection, schedule: Q04DX003 (ip), vehicle: Klucel (hydroxypropylcellulose) (HPC)

Measured: T/C

COc1ccc(-n2c(=O)c(N=Nc3ccccc3C)c(O)n(-c3ccccc3C)c2=S)cc1
inactive: dose: 37.5 mg/kg/injection, schedule: Q01DX001 (ip), vehicle: Klucel (hydroxypropylcellulose) (HPC) 100 % of control | dose: 75.0 mg/kg/injection, schedule: Q01DX001 (ip), vehicle: Klucel (hydroxypropylcellulose) (HPC) 97 % of control | dose: 150.0 mg/kg/injection, schedule: Q01DX001 (ip), vehicle: Klucel (hydroxypropylcellulose) (HPC) 100 % of control

CCCCCCCCCCCCCCCCN(C(C)C)S(=O)(=O)c1ccc(Cl)c(N)c1
inactive: dose: 100.0 mg/kg/injection, schedule: Q01DX009 (ip), vehicle: saline 89 % of control | [1] 98 % of control | dose: 200.0 mg/kg/injection, schedule: Q01DX009 (ip), vehicle: saline 89 % of control | [2] 96 % of control | dose: 400.0 mg/kg/injection, schedule: Q01DX009 (ip), vehicle: saline 102 % of control | [3] 89 % of control

CCCOC(=O)C1(N)CCCC1
active: dose: 148.0 mg/kg/injection, schedule: Q01DX Z (ip), vehicle: saline 160 % of control
inactive: dose: 16.0 mg/kg/injection, schedule: Q01DX Z (ip), vehicle: carboxymethylcellulose (CMC) 117 % of control | dose: 31.0 mg/kg/injection, schedule: Q01DX Z (ip), vehicle: carboxymethylcellulose (CMC) 119 % of control | dose: 45.0 mg/kg/injection, schedule: Q01DX Z (ip), vehicle: saline 114 % of control | dose: 50.0 mg/kg/injection, schedule: Q01DX001 (ip), vehicle: Klucel (hydroxypropylcellulose) (HPC) 98 % of control | dose: 50.0 mg/kg/injection, schedule: Q04DX003 (ip), vehicle: Klucel (hydroxypropylcellulose) (HPC) 103 % of control | dose: 62.0 mg/kg/injection, schedule: Q01DX Z (ip), vehicle: carboxymethylcellulose (CMC) 120 % of control | dose: 100.0 mg/kg/injection, schedule: Q01DX001 (ip), vehicle: Klucel (hydroxypropylcellulose) (HPC) 106 % of control | dose: 100.0 mg/kg/injection, schedule: Q01DX Z (ip), vehicle: saline 121 % of control | [1] 117 % of control | dose: 150.0 mg/kg/injection, schedule: Q01DX Z (ip), vehicle: saline 114 % of control | dose: 200.0 mg/kg/injection, schedule: Q01DX001 (ip), vehicle: Klucel (hydroxypropylcellulose) (HPC) 117 % of control and 118 % of control | dose: 336.0 mg/kg/injection, schedule: Q01DX Z (ip), vehicle: saline 110 % of control | [3] 121 % of control | dose: 500.0 mg/kg/injection, schedule: Q01DX Z (ip), vehicle: carboxymethylcellulose (CMC) 89 % of control | dose: 504.0 mg/kg/injection, schedule: Q01DX Z (ip), vehicle: saline 116 % of control

COC1OC(CO)C(O)C([N+](=O)[O-])C1O (stereo not drawn)
inactive: dose: 100.0 mg/kg/injection, schedule: Q04DX003 (ip), vehicle: saline 98 % of control | dose: 200.0 mg/kg/injection, schedule: Q04DX003 (ip), vehicle: saline 102 % of control | dose: 400.0 mg/kg/injection, schedule: Q04DX003 (ip), vehicle: saline 105 % of control

Nc1ccc(O)c2ccccc12
inactive: dose: 6.25 mg/kg/injection, schedule: Q04DX003 (ip), vehicle: other 97 % of control

O=C(c1ccccc1)c1ccc(Oc2ccc(C(=O)c3ccccc3)cc2)cc1
inactive: dose: 75.0 mg/kg/injection, schedule: Q04DX003 (ip), vehicle: Klucel (hydroxypropylcellulose) (HPC) 94 % of control | [1] 101 % of control | dose: 150.0 mg/kg/injection, schedule: Q04DX003 (ip), vehicle: Klucel (hydroxypropylcellulose) (HPC) 96 % of control | [2] 96 % of control | dose: 300.0 mg/kg/injection, schedule: Q04DX003 (ip), vehicle: Klucel (hydroxypropylcellulose) (HPC) 107 % of control | [3] 95 % of control

Cc1ccc(S(=O)(=O)N/N=C/C(O)C(O)C(O)CO)cc1 (stereo not drawn)
inactive: dose: 100.0 mg/kg/injection, schedule: Q01DX009 (ip), vehicle: saline with Tween-80 94 % of control | dose: 100.0 mg/kg/injection, schedule: Q04DX003 (ip), vehicle: saline with Tween-80 94 % of control | dose: 200.0 mg/kg/injection, schedule: Q01DX009 (ip), vehicle: saline with Tween-80 103 % of control | dose: 200.0 mg/kg/injection, schedule: Q04DX003 (ip), vehicle: saline with Tween-80 94 % of control | dose: 400.0 mg/kg/injection, schedule: Q01DX009 (ip), vehicle: saline with Tween-80 96 % of control | dose: 400.0 mg/kg/injection, schedule: Q04DX003 (ip), vehicle: saline with Tween-80 96 % of control

CCOC(=O)C(C)C1(c2ccccc2)OC(=O)c2ccccc21 (stereo not drawn)
inactive: dose: 100.0 mg/kg/injection, schedule: Q04DX002 (ip), vehicle: saline with Tween-80 108 % of control | dose: 200.0 mg/kg/injection, schedule: Q04DX002 (ip), vehicle: saline with Tween-80 112 % of control | dose: 400.0 mg/kg/injection, schedule: Q04DX002 (ip), vehicle: saline with Tween-80 97 % of control

CCOc1ccccc1NC(=O)c1ccc(Cl)cc1Cl
inactive: dose: 50.0 mg/kg/injection, schedule: Q01DX009 (ip), vehicle: Klucel (hydroxypropylcellulose) (HPC) 92 % of control | dose: 100.0 mg/kg/injection, schedule: Q01DX009 (ip), vehicle: Klucel (hydroxypropylcellulose) (HPC) 92 % of control | [1] 89 % of control | dose: 200.0 mg/kg/injection, schedule: Q01DX009 (ip), vehicle: Klucel (hydroxypropylcellulose) (HPC) 86 % of control
